Entries after “also recorded” stand apart in the source; their conditions may differ. Values belong to the molecule of their own block, whether it stands above or below them.
Tests used:
hair follicles [1] = assay: Hair follicle regeneration / new hair growth after a single intradermal injection in telogen back skin; assay type: in vivo, mice
Method: (§1) The second telogen of C57BL/6J mice starts at day 49 after birth and it will last around 5 weeks (Muller-Rover et al., 2001). On day 48 after birth, the mice were shaved. On day 49 after birth, wt and Trpv4^−/− mice were intradermally injected with 30-μM GSK1016790A (GSK101, a selective TRPV4 agonist) (50 μl), which is diluted in saline from the 100 mM stock solution. GSK2193874 (GSK219, a selective TRPV4 antagonist) (25 mg·kg^−1, 200 μl dilution in saline from 50 mg·ml^−1 stock solution) (Thorneloe et al., 2012) or PD98059 (10 mg·kg^−1, 200 μl dilution in saline from 37.5 mg·ml^−1 stock solution) was applied through intraperitoneal injection on day 48 after birth or 1 hour prior to GSK1016790A injection. Insulin syringes with 30-G needle (UltiCare) were used for intradermal injection and 1-ml Sub-Q syringes with 26-G needle (BD) were used for intraperitoneal injection. Seventeen days after GSK1016790A injection, the mice were killed and the skin samples of the injection area were collected for analysis. In mice with newly generated hair, generally, there was a small patch of skin with dark color and longer hair shaft at the injection sites compared with that in the surrounding area.
Dorsal skin samples were fixed overnight at 4° C. in Zamboni's fixative (2% paraformaldehyde, 15% [v/v] saturated picric acid, 0.1-M PB, pH 7.3), dehydrated in ethanol, embedded in paraffin and sectioned at 10 μm. Haematoxylin and eosin (H&E) staining was performed according to standard protocols to analyze the hair follicle cycle stages as described, including the length of the hair follicle, the size, and location of dermal papilla and the position of the hair shaft and the inner root sheath (Muller-Rover et al., 2001). For immunofluorescence detection, sections were deparaffinized, rehydrated, and subjected to antigen retrieval in 10-mM citrate buffer (pH 6.0). After blocking, sections were stained with primary antibody against Ki67 (1:1,000; Thermo Fisher Scientific, Cat #PA1-29503, RRID: AB_1955602), phosphop-p44/42 MAPK (1:200; Cell Signaling Technology, Cat #4370S, RRID: AB_2315112), p44/42 MAPK (1:1,000; Cell Signaling Technology, Cat #4695, RRID: AB_390779), keratin 14 (1:1,000; BioLegend, […], RRID: AB_2616962) and keratin 15 (1:1,000; BioLegend, Cat #833901, RRID: AB_2564970) at 4° C. overnight in a humid chamber, followed by incubation for 1 h at room temperature (RT) with Cy3-conjugated secondary antibody (1:500; Jackson ImmunoResearch, Cat #111-005-003, RRID: AB_2337913) and Alexa Fluor 488-conjugated secondary antibody (1:500; Jackson ImmunoResearch, Cat #703-005-155, RRID: AB_2340346). Nuclei were stained with DAPI (SouthernBiotech). The Immuno-related procedures used comply with the recommendations made by the British Journal of Pharmacology Alexander et al., 2018.

[2] = test system: hair follicle keratinocytes; assay: Ki67 immunofluorescence staining of back skin sections (proliferation of hair follicle keratinocytes and stem cells); assay type: in vivo; details: Trpv4+/+ mice, 48 h after single intradermal injection, vs vehicle
Method: as §1, with “Seventeen days after GSK1016790A injection, the mice were killed and the skin samples of the injection area were collected for analysis.” left out
Dorsal skin samples were fixed overnight at 4° C. in Zamboni's fixative (2% paraformaldehyde, 15% [v/v] saturated picric acid, 0.1-M PB, pH 7.3), dehydrated in ethanol, embedded in paraffin and sectioned at 10 μm. […]

[3] = test system: Bmp6, Fgf18, Fgf7, Wnt16 and Nog mRNA; assay: Quantitative RT-PCR of whole skin lysates for anagen-inhibiting and anagen-promoting factors; assay type: in vivo, mice
Method: as §1
For real-time PCR, skin sample was collected 24 h after GSK1016790A injection. Total RNA was extracted from mouse skin tissue using RNeasy kit (Qiagen, Germantown, MD, […]) according to the manufacturer's instructions. RNA was treated with DNase I (Invitrogen, Carlsbad, CA, USA), and the cDNA was synthesized in vitro using ThermoScript® RT-PCR System kit (Invitrogen). Reactions were carried out in a volume of 20 μl per reaction containing 10-μl SYBR Green master mix (2×) (Roche, Indianapolis, IN, USA), 0.5-μl cDNA, 1.2-μl 5-μM primer mix, and 8.3-μl water using StepOnePlus real-time PCR system (Applied Biosystems, Foster City, CA, USA). Relative expression of genes was normalized to GAPDH and calculated using the 2^−ΔΔct methods.

ERK1/2 = ERK1/2 phosphorylation in skin (western blot, immunofluorescence); assay type: in vivo, mice; details: for effect of pretreatment on GSK1016790A-induced ERK1/2 phosphorylation: intraperitoneal pretreatment one hour before GSK1016790A, skin harvested 15 min after
Method: as §1, with “Seventeen days after GSK1016790A injection, the mice were killed and the skin samples of the injection area were collected for analysis.” left out
(§2) Dorsal skin samples were fixed overnight at 4° C. in Zamboni's fixative (2% paraformaldehyde, 15% [v/v] saturated picric acid, 0.1-M PB, pH 7.3), dehydrated in ethanol, embedded in paraffin and sectioned at 10 μm. Haematoxylin and eosin (H&E) staining was performed according to standard protocols to analyze the hair follicle cycle stages as described, including the length of the hair follicle, the size, and location of dermal papilla and the position of the hair shaft and the inner root sheath (Muller-Rover et al., 2001). For immunofluorescence detection, sections were deparaffinized, rehydrated, and subjected to antigen retrieval in 10-mM citrate buffer (pH 6.0). […]
The skin was lysed in RIPA lysis and extraction buffer (Thermo Fisher Scientific, USA). Following cell protein quantitation, 10 μg of protein per sample were subjected to 12% SDS-PAGE. […]

hair follicles [4] = assay: Topical application on tape-stripped shaved back skin, hair growth; assay type: in vivo, mice
From the text: FIG. 10. […] Images were taken on day 12 after GSK101 treatment.
A TRPV4-dependent increase in hair growth was observed (FIG. 10).
Tape stripping was used to remove the stratum corneum to facilitate GSK101 entry into the skin. The agent can be applied with no additional agent or skin treatment method. The effect was removed by genetic ablation of the TRPV4 function.

[5] = test system: cultured human hair follicles; details: cultured human hair follicles ex vivo; cited from earlier work
[6] = test system: human epidermal keratinocytes HaCaT cells; details: cited from earlier work
TRPV4 = target: T1, TRPV4 (Mus musculus, UniProt Q9EPK8); assay: Normal hair follicle cycling under pharmacological inhibition of TRPV4 (H&E of back skin); assay type: in vivo; details: Trpv4+/+ mice treated with GSK219
T1 construct: back skin sections from Trpv4^+/+ mice, Trpv4^+/+ mice treated with GSK219 and Trpv4^−/− mice; from tissue; host or cells: back skin of living wild-type C57BL/6J (Trpv4+/+) mice
T1 sequence (Q9EPK8 whole entry): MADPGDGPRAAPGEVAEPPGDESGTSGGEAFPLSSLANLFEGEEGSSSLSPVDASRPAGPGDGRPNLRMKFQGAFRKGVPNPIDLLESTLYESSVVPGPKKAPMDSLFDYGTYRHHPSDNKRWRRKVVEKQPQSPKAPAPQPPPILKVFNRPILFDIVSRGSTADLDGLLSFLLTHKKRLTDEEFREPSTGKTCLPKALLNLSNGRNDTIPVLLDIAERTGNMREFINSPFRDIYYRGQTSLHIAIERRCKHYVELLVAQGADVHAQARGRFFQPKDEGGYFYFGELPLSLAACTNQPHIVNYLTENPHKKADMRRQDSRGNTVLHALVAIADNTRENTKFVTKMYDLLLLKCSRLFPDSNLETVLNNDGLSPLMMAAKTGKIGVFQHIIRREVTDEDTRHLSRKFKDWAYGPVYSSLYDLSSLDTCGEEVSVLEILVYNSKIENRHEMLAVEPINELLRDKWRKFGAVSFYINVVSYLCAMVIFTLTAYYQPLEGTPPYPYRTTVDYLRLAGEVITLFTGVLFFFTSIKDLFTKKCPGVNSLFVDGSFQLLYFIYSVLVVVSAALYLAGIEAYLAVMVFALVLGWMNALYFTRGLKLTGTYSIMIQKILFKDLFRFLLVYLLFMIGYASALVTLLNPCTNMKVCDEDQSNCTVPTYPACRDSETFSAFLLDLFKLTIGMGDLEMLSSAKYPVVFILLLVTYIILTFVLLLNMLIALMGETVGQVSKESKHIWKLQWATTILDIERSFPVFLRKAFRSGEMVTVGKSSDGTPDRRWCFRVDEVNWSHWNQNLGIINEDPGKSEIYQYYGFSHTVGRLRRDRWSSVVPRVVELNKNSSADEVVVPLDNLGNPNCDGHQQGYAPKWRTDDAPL
Method: FIG. 6. Top: hair growth cycle in mice. Bottom: representative images of hematoxylin and eosin (H&E) staining of back skin sections from Trpv4^+/+ mice, Trpv4^+/+ mice treated with GSK219 and Trpv4^−/− mice on Day 15, 21, 36, 40, 49. Scale bar=100 μm.
as §2

[7] = Cre+ K14Cre, Trpv4f/f mice vs wt
[8] = Cre+ K14Cre, Trpv4f/f mice, after injection
[9] = Trpv4+/+ mice, whole skin, 24 h after injection

Structure (SMILES): CC(C)C[C@H](NC(=O)c1cc2ccccc2s1)C(=O)N1CCN(C(=O)[C@H](CO)NS(=O)(=O)c2ccc(Cl)cc2Cl)CC1 [GSK1016790A, N-((1S)-1-{[4-((2S)-2-{[(2,4-dichlorophenyl)sulfonyl]amino}-3-hydroxypropanoyl)-1-piperazinyl]carbonyl}-3-methylbutyl)-1-benzothiophene-2-carboxamide]
new hair growth (newly generated hair coat) at the injection site (hair follicles [1]; 7-week-old wt (Trpv4+/+) mice, single intradermal injection (30 μM, 50 μl), 17 days after injection, vs vehicle): newly generated hair coat could be clearly observed at the injection site in a dose-dependent manner; also recorded: persistently induced hair growth
hair regeneration in macrophage-specific TRPV4 conditional KO mice (hair follicles [1]; Cx3cr1Cre, Trpv4f/f mice vs Cre− wt littermates, single intradermal injection): comparable hair regeneration
hair regeneration in keratinocyte-specific TRPV4 conditional KO mice (hair follicles [1]; K14Cre, Trpv4f/f mice, single intradermal injection): completely absent
GSK1016790A-induced hair regeneration in global TRPV4 KO mice (hair follicles [1]; Trpv4−/− mice, single intradermal injection): completely absent
hair follicle elongation (hair follicle length) (hair follicles [1]; wt mice, single intradermal injection, H&E of back skin, vs vehicle): more than fourfold
hair cycle stage of hair follicles (hair follicles [1]; wt mice, single intradermal injection, vehicle: telogen or anagen I): most of the hair follicles had entered anagen Ill-VI phases
number of Ki67-positive K14-expressing hair follicle keratinocytes [2]: significantly increased; also recorded: increase
number of Ki67-positive K15-expressing hair follicle stem cells in the bulge [2]: increased number; also recorded: increase
Bmp6 mRNA expression level ([3]; Cre+ K14Cre, Trpv4f/f mice): did not affect
Fgf18 mRNA expression level ([3]; Cre+ K14Cre, Trpv4f/f mice): did not affect
Fgf7 expression compared with wt mice injected with GSK1016790A [3, 7]: significantly decreased
Nog expression compared with wt mice injected with GSK1016790A [3, 7]: significantly decreased
Wnt16 expression compared with wt mice injected with GSK1016790A [3, 7]: significantly decreased
Fgf7 expression [3, 8]: still increased
Nog expression [3, 8]: still increased
Wnt16 expression [3, 8]: still increased
Bmp6 mRNA transcripts [3, 9]: significant decrease
Fgf7 mRNA transcripts [3, 9]: markedly increased
Fgf18 mRNA transcripts [3, 9]: significant decrease
Nog mRNA transcripts [3, 9]: markedly increased
Wnt16 mRNA transcripts [3, 9]: markedly increased
GSK1016790A-induced changes in Bmp6, Fgf18, Fgf7, Wnt16 and Nog expression under genetic ablation of TRPV4 ([3]; Trpv4−/− mice, 30 μM intradermal, 24 h): significantly attenuated
ERK1/2 phosphorylation (ERK1/2; 15 min after a single intradermal injection, skin at injection site): significantly increased
hair growth after topical application (hair follicles [4]; 100 μM applied once, tape stripping of shaved back, day 12, vs vehicle): facilitate hair growth; also recorded: increased hair growth
hair growth effect of topical application under genetic ablation of TRPV4 function (hair follicles [4]; TRPV4 ablated mice, tape stripping): removed
number of apoptotic cells [5]: increased
ratio of proliferating cells [5]: decreased
membrane currents ([6]; HaCaT cells (PMID: 29293584)): activated membrane currents
IL-6 production ([6]; HaCaT cells (PMID: 30022772)): induced
IL-8 production ([6]; HaCaT cells (PMID: 30022772)): induced

normal transition of first telogen to second anagen (TRPV4): no effect
Structure (SMILES): O=C(NC1(c2ccccc2)CC1)c1c(CN2CCC(N3CCCCC3)CC2)c(-c2cccc(C(F)(F)F)c2)nc2cc(Br)ccc12 [GSK2193874]
effect of pretreatment on GSK1016790A-induced hair regeneration (hair follicles [1]; GSK2193874 25 mg·kg−1 intraperitoneal pretreatment, wt mice): completely abolished
effect of pretreatment on GSK1016790A-induced changes in Bmp6, Fgf18, Fgf7, Wnt16 and Nog expression ([3]; GSK2193874 pretreatment, Trpv4+/+ mice): significantly attenuated
effect of pretreatment on GSK1016790A-induced ERK1/2 phosphorylation (ERK1/2): severely attenuated

Structure (SMILES): COc1cccc(-c2cc(=O)c3ccccc3o2)c1N [PD98059]
hair growth after GSK1016790A injection in pretreated mice (hair follicles [1]; PD98059 10 mg·kg−1 intraperitoneal pretreatment, 17 days after GSK1016790A injection): completely absent
effect of pretreatment on GSK1016790A-induced decrease of Bmp6 and Fgf18 and increase of Fgf7, Wnt16 and Nog expression ([3]; PD98059 pretreatment vs vehicle control): completely reversed
effect of pretreatment on GSK1016790A-induced ERK1/2 phosphorylation (ERK1/2): severely attenuated

Reference: US12582649B2, “Compositions and methods for hair follicle regeneration” (Washington University, priority 2020, dated 2026)
